Source: ChEMBL document CHEMBL3507680, “University of Dundee, Gates Library screen for HepG2 cell viability”

Assay: Human HepG2 cell viability assay in 384 well format
Format: toxicity, cell-based
Set-up: dose 125 nL, time 70.5 hour; concentration not given beside the values
Settings: HepG2 cells, read-out: Inhibition

Compound	cytotoxicity at 70.5 h [%]
COCCNC(=O)CCN1C(=O)CC2(CCCC2)C1=O	-15.7
Cc1cnn(C2CN(Cc3nc(-c4ccco4)no3)C2)c1	-10.1
CCn1cnnc1CNC(=O)N1CCCCCC1	-2.16
CCN1CC(C(=O)N2CC(Oc3ccccc3Cl)C2)CCC1=O (stereo not drawn)	-1.72
N#Cc1ccccc1C(=O)NCCC1CN(Cc2ccco2)CCO1 (stereo not drawn)	2.72
COC(=O)c1ccc(N(C(=O)c2cccnc2C)C(C)C)c(C)c1	-7.81
CCN(C(=O)c1nc2c(s1)CCCN2C)C(C)C	-1.08
CC(=O)Nc1cccc(C(C)NCC2CCS(=O)(=O)CC2)c1 (stereo not drawn)	-3.86
Cc1ccc2c(c1)c(Sc1ccccc1)c(CC(=O)O)n2C	1.6
CCC1CN(C(=O)COc2ccc(C(=O)NC3CC3)cc2)CCO1 (stereo not drawn)	-2.32
O=C(CCCSc1ccc(NC(=O)C2CC2)nn1)NCC1CCCO1 (stereo not drawn)	-14.1
Cn1cccc1C(=O)N1CCN(CC2CC2)c2ncccc2C1	2.74
CCSCc1ccnc(NC(=O)C2CCOC2)c1 (stereo not drawn)	-4
COc1nccnc1N1CCCC2(C1)C(=O)N(C)c1ccccc12 (stereo not drawn)	-12.3
CCCc1nc(N2CCN(Cc3ccccn3)CC2)c2cnn(C)c2n1	-6.11
Cc1ccc(NCCNC(=O)c2cc(CC(C)C)n[nH]2)nn1	4.32
Cc1noc(C)c1CN1C[C@@H]2COC[C@]2(COc2ccc(C#N)cn2)C1	-2.55
Cc1nccn1CC1CCCN1S(=O)(=O)Cc1ccccc1F (stereo not drawn)	-7.26
CCOCc1ncn2c1CN(C(=O)Nc1ccccc1)CC2	-15.7
O=C(c1cscn1)N1C[C@@H]2[C@@H](C1)OCC(=O)N2CC1CCCC1	-6.35
CC(C)CN1CCCC2(CCN(c3ccc(C#N)cn3)C2)C1 (stereo not drawn)	2.01
O=C(CCCNc1ncccn1)Nc1cc(C(F)(F)F)c[nH]c1=O	-2.93
CCc1ncnc(N2CCOCC2C2CC2)c1F (stereo not drawn)	-15.6

Compound	cytotoxicity at 70.5 h [%]
CC(C)CN1CCn2nc(CNc3ncnc4[nH]ccc34)cc2C1	7.26
Cc1nn(C)c(Cl)c1C(=O)NCC(c1ccsc1)N(C)C (stereo not drawn)	-21.3
CC(O)CN1CCC(CNCc2ccc(C(N)=O)cc2)CC1 (stereo not drawn)	-0.474
Cc1cc(CNC2(CO)CCOCC2)ccc1Br	-0.894
O=C(Cn1cc(I)cn1)N1CCCC1	-3.36
Cc1csc(CN(C)C(=O)Nc2cnn(CC3CCCO3)c2)n1 (stereo not drawn)	-12.7
O=C1NCCCc2[nH]c(-c3nc(C4CC4)no3)nc21	-3.92
CCCNC(=O)C(C)N1CCC(C(=O)Nc2cnn(CC)c2)CC1 (stereo not drawn)	-4.58
Cc1ccc(S(=O)(=O)Cc2nsc(N(C)C)n2)c(C)c1	-6.24
CCCc1cc(NC2CCc3nc(CC)nn3C2)n2ncnc2n1 (stereo not drawn)	-100
Cc1cnn(C2(C(=O)O)CCN(Cc3oc4ccccc4c3C)CC2)c1	-8.33
CCc1nc(C2CCCN2CC(=O)Nc2c(C)nn(C)c2C)no1 (stereo not drawn)	-3.18
O=C(Cc1ccccc1F)NCC1CCN(CCc2ccccc2)C1 (stereo not drawn)	-1.68
O=C(NCCc1ccn(-c2ccc(F)cc2)n1)C1CCCOC1 (stereo not drawn)	-1.01
CCn1cc(N2Cc3nc(N4CCN(C)CC4)ncc3C2=O)cn1	-7.74
CC1CCCN(C(=O)c2cc(-c3ccco3)cs2)C1 (stereo not drawn)	-14.8
Cc1nc(CN2C[C@@H]3CN(C(=O)c4ccncc4)C[C@@H]3C2)cs1	-9.65
CNC(=O)c1cnc(/C=C/c2cc(OC)cc(OC)c2)s1	17.6
CCC(C)(NCC(=O)OC)c1nc(C)cs1 (stereo not drawn)	-1.12
Cc1cc(C)n(C2CN(CCc3ccccn3)C2)n1	-11.1
Cn1cc(CN(CC2(O)CCNC2)C2CCCCC2)cn1 (stereo not drawn)	5.59
CC(C)C1=NOC2(CCN(S(C)(=O)=O)CC2)C1	-12.4
CC(C)C(Sc1nnc(C2CC2)n1C1CC1)C(=O)NCc1cccnc1 (stereo not drawn)	-8.64

Compound	cytotoxicity at 70.5 h [%]
COc1cccc(C(=O)NCC(O)c2cccs2)c1 (stereo not drawn)	-0.864
Cc1nnc(NC(=O)NCc2ccc(OC3CCCC3)nc2)s1	1.95
O=C(NCc1cccs1)[C@H]1CO[C@H]2CCN(C3CCCC3)C[C@H]2C1	4.95
CC(=O)N1CC[C@H](c2nnc(Cc3c[nH]c4ccccc34)o2)C1	-3.38
CN(Cc1ccco1)Cc1cncc2c1CCN(Cc1ccoc1)C2	-8.02
CNC(=O)c1ccc(NC(=O)NC(C)c2cc(C)oc2C)c(C)c1 (stereo not drawn)	-5.7
c1ccc(-c2nnc3sc(CCN4CCCC4)nn23)cc1	-5.25
Cn1c(C(F)(F)F)nn(CCNC(=O)Nc2ccccc2F)c1=O	-7.97
O=C(C1CCOCC1)N1CCC(OCc2cccnc2)CC1	-12
CC(=O)N1CCN(C(=O)NCc2cccnc2OC(C)C)CC1	26.4
CC(C)C(=O)N1CCCN(C(=O)NC2CCc3ccccc3C2)CC1 (stereo not drawn)	-4.48
OC(CN1CCC(c2ccn[nH]2)CC1)c1ccc(F)cc1 (stereo not drawn)	26.4
c1ccc(CCCN2CC[C@H](c3nnc(-c4ccccc4)o3)C2)cc1	-2.93
CN(C)S(=O)(=O)c1ccc(CNC(=O)c2cn3c(n2)CNCC3)cc1	14.9
CCc1nc(CN2CC(C(=O)OC)O[C@H](C)C2)cs1 (stereo partly drawn)	-8.81
O=C(O)c1cc(-c2ccn(CC3CC3)n2)n2ccccc12	-1.77
Cc1cc(CC(=O)N(CC2CN(C)CCO2)c2nccs2)no1 (stereo not drawn)	-10.3
Cc1ccc2cc(CN(C)Cc3nccs3)c(=O)[nH]c2c1	-11.3
O=C1CCC(C(=O)N(Cc2ccsc2)CC2CCCO2)=NN1 (stereo not drawn)	-0.382
NC(=O)CC1CCN(C(=O)NCc2ccc(-c3ccn[nH]3)cc2)CC1	-11.3
CCOCC1CN(C(=O)N(C)C)Cc2nn(C)cc21 (stereo not drawn)	-5.53
CN1C[C@@H]2CC[C@H](CC1=O)N2C(=O)c1cc2ccccc2[nH]c1=O	-6.85
Cc1cc(NC(=O)NCCc2cccs2)n(C)n1	-1.92

Compound	cytotoxicity at 70.5 h [%]
CC(CN1CCOCC1)OC(=O)c1ccccc1I (stereo not drawn)	-15.6
c1ccc(CO[C@H]2C[C@@H]3CN(Cc4cncnc4)C[C@@H]3C2)cc1	-5.58
O=C([C@H]1CN(CCc2ccccc2)C[C@H]2OCC[C@@H]12)N1CCCO1	6.27
CO[C@H]1CN(Cc2ccc(F)cc2)CC[C@@]12CCCO2	6.89
CCOc1ccccc1N(C)C(=O)c1ccc(Cl)cn1	21.8
COCC(=O)N1Cc2nccn2CC(Cn2ncccc2=O)C1 (stereo not drawn)	-10
CCc1noc(Cn2c(=O)c3c(C(F)(F)F)cc(C)nc3n2C)n1	19.2
CCn1c(C)nnc1SCCNC(=O)c1cnc(C(C)(C)C)nc1O	14.5
Cn1cc(N2CCCC(SCc3nc(C4CC4)no3)C2=O)cn1 (stereo not drawn)	29.8
CC(=O)NCC(=O)N1C[C@@H](C)[C@@]2(CCN(c3ccsc3)C2=O)C1	-10.5
Cc1cccnc1C(=O)N1CCCC(c2[nH]ncc2S(C)(=O)=O)C1 (stereo not drawn)	0.897
CN(Cc1cc2n(n1)CCCNC2)Cc1cc(-c2ccncc2)no1	-5.61
O=C(C1CCCN(C2CCOCC2)C1)N1Cc2ccccc2C1 (stereo not drawn)	13
COC(=O)c1ccc(NC2CCN(CC(F)(F)F)C2=O)cc1C (stereo not drawn)	26.2
COCCCNC(=O)c1cc(OC)c2ccoc2c1	22.5
Cc1cc(C)n(CCC(=O)N2CCC(Nc3cccnn3)CC2)n1	-12.8
CCN1CC[C@@]2(C(=O)N3CCOCC3)CCN(C(=O)C(C)C)CC[C@@H]12	18.4
CN(C)C(=O)c1cccc(C2CNCCN2C)c1 (stereo not drawn)	-4.31
COc1cccc(-c2noc(C3CCN(Cc4ccncc4)C3)n2)c1 (stereo not drawn)	-3.26
CC(C)Cc1cc(NC(=O)c2ccccn2)n(C)n1	-10.2
CC(C)NC(=O)N1CCN(S(=O)(=O)C2CC2)CC2(CC(=O)N(C)C2)C1 (stereo not drawn)	0.827
Cc1ncsc1CN1CC[C@H]2OCC[C@@]2(C(=O)N2CCCC2)C1	-1.98
Cn1ccnc1-c1nc(NC2CCCC2)ncc1-c1cccc(F)c1	0.205

Compound	cytotoxicity at 70.5 h [%]
CN(C)C(CNC(=O)NCc1cc[nH]n1)c1ccco1 (stereo not drawn)	0.0309
Cc1cc2c(c(-c3cncc(C(=O)N4CCCC4)n3)c1)OC(CN)C2 (stereo not drawn)	-6.51
COc1ccccc1C(C)N1CCN(S(=O)(=O)N(C)C)CC1 (stereo not drawn)	4.97
O=C(c1cc(Cn2cnc3ccccc32)on1)N1CCOCC1	-17.3
COCCN1CCCC(c2nc(C)n3c(C)c(C)sc23)C1 (stereo not drawn)	-5.38
Cc1c[nH]c(CN(C)C(C(=O)O)c2c(F)cccc2OC(C)C)n1 (stereo not drawn)	1.64
CN(C(=O)c1ccc(-n2ncc(C#N)c2N)cc1)C1CCCC1	-1.19
NC(=O)[C@@H]1Cc2ccccc2N1C(=O)C1CC(c2ccccc2)=NO1 (stereo partly drawn)	6.72
NCC1(c2cccc(C(F)(F)F)c2)CC1	13.4
O=C(c1ccc(=O)[nH]n1)N1CCc2ccccc21	-0.117
CCS(=O)(=O)Nc1ccc2oc(C)c(C(=O)OC)c2c1	-15
O=C(NCCc1nnc2n1CCC2)N(Cc1ccco1)C1CCCC1	-6.25
CN(Cc1cn2c(n1)CN(CC1CC1)CC2)Cc1ccco1	-11.8
O=C(NCc1ccco1)[C@H]1C[C@H]2OCC[C@H]2N(C(=O)c2ccnnc2)C1	-12.6
CCc1nnc(CN2CCN(C(=O)c3cc4ccccc4[nH]3)CC2)o1	-3.19
COc1ccccc1OCC(=O)N1C[C@@H]2CN(C)CCO[C@@H]2C1	32.3
Cc1nccn1-c1cc(CNC(=O)CCNC(=O)C2CCCC2)ccn1	2.73
CC1=N[C@@]2(CC[C@@H]3CN(C(=O)Nc4ccc(F)cc4)C[C@@H]32)C(=O)N1C	-101
Cc1nnc(N2CC[C@@]3(O)CCNC[C@H]3C2)c2ccccc12	-12.3
CCCN1CCC2(C1)c1ccccc1S(=O)(=O)N2Cc1ccc(F)cc1 (stereo not drawn)	-1.79
O=C(O)c1cc(-c2ccccc2)ns1	-20.2
